Test results as given in patent publication US10456407B2, “Combination therapy for treating cancer” (Epizyme, Inc., priority 2015, dated 2019).

Legend:
SU-DHL4 cells = experiment: RT2 Glucocorticoid signaling PCR array, SU-DHL4 (SUDHL4) cell line (Table 4f); format: cell-based; conditions: SUDHL4, 4 days, vs DMSO
Excerpt: Expression levels of (A). Sestrin; (B). TNF and (C) GILZ normalized to DMSO controls for each cell line with the indicated single agent or combination.

SMARCB1 protein levels = experiment: SMARCB1 (INI1) western blot in lymphoma cells; format: cell-based; conditions: single agent treatment
Excerpt: Glucocorticoid bound GR molecules move to the nucleus and can act as either transcriptional activator or repressor, depending on the cellular environment. […] Accessibility to GR binding sites can further be enhanced by ATP-dependent chromatin remodeling, and the SWI/SNF complex plays a key role in this activity. Not wishing to be bound by a particular theory or a specific mechanism of action, it is conceivable that aberrant chromatin repression, induced by EZH2 mediated hypertrimethylation of H3K27, can block some of the otherwise accessible GR binding sites, interfering with normal GR mediated gene induction or repression.

| Structure (SMILES) | ΔΔCT, BCL6 (SU-DHL4 cells) | ΔΔCT, CEBPB (SU-DHL4 cells) | ΔΔCT, DDIT4 (SU-DHL4 cells) | ΔΔCT, DUSP1 (SU-DHL4 cells) | ΔΔCT, NFKBIA (SU-DHL4 cells) | ΔΔCT, PDP1 (SU-DHL4 cells) | ΔΔCT, POU2F2 (SU-DHL4 cells) | ΔΔCT, RASA3 (SU-DHL4 cells) | ΔΔCT, SPHK1 (SU-DHL4 cells) | ΔΔCT, STAT5A (SU-DHL4 cells) | ΔΔCT, TNF (SU-DHL4 cells) | ΔΔCT, VDR (SU-DHL4 cells) | ΔΔCT, VLDLR (SU-DHL4 cells) | ΔΔCT, ZNF281 (SU-DHL4 cells) | SMARCB1 protein levels (SMARCB1 protein levels) |
| --- | --- | --- | --- | --- | --- | --- | --- | --- | --- | --- | --- | --- | --- | --- | --- |
| C[C@]12C=CC(=O)C=C1CC[C@@H]1[C@@H]2[C@@H](O)C[C@@]2(C)[C@H]1CC[C@]2(O)C(=O)CO [Prednisolone, prednisolone] | −0.793 | 0.528 | −1.931 | −1.093 | −0.710 | −0.521 | −0.675 | −0.723 | 0.331 | −0.389 | −2.845 | −0.996 | 1.191 | −0.739 | no effect |
| CCN(c1cc(-c2ccc(CN3CCOCC3)cc2)cc(C(=O)NCc2c(C)cc(C)[nH]c2=O)c1C)C1CCOCC1 [Compound 44] | −1.019 | 0.776 | −1.317 | −0.449 | −0.388 | −0.911 | −0.539 | −0.731 | −1.066 | −0.587 | −2.458 | −2.155 | 0.438 | −0.612 | no effect |
